As for `COc1ccc(-c2ccc3ncc(NC(=O)Nc4c(C)noc4C)nc3n2)cc1OC` [Compound 573, 1-[6-(3,4-Dimethoxy-phenyl)-pyrido[2,3-b]pyrazin-3-yl]-3-(3,5-dimethyl-isoxazol-4-yl)-urea], the melting point lay in the range of 265 to 267 °C.
In the case of `O=C(Nc1cnc2ccc(-c3cc(Cl)c(O)c(Cl)c3)nc2n1)Nc1cccs1` [Compound 560, 1-[6-(3,5-Dichloro-4-hydroxy-phenyl)-pyrido[2,3-b]pyrazin-3-yl]-3-thiophen-2-yl-urea], the melting point was in the range of 253 to 255 °C.
Compound `COc1cc(-c2ccc3ncc(NC(=O)NCCc4ccccc4)nc3n2)ccc1O` [Compound 26, 1-[6-(4-Hydroxy-3-methoxy-phenyl)-pyrido[2,3-b]pyrazin-3-yl]-3-phenethyl-urea] had a melting point of 235 to 237 °C.
`COc1cc(-c2ccc3ncc(NC(=O)Nc4cccc([N+](=O)[O-])c4)nc3n2)ccc1O` [Compound 618, 1-[6-(4-Hydroxy-3-methoxy-phenyl)-pyrido[2,3-b]pyrazin-3-yl]-3-(3-nitro-phenyl)-urea] registered a melting point of 274 to 276 °C.
Next, `CCNC(=O)Nc1cnc2ccc(-c3cccc(OC(C)C)c3)nc2n1` [Compound 177, 1-Ethyl-3-[6-(3-isopropoxy-phenyl)-pyrido[2,3-b]pyrazin-3-yl]-urea]: 234 to 237 °C; `COc1cc(-c2ccc3ncc(NC(=O)Nc4ccc(Cl)cc4)nc3n2)ccc1O` [Compound 529, 1-(4-Chloro-phenyl)-3-[6-(4-hydroxy-3-methoxy-phenyl)-pyrido[2,3-b]pyrazin-3-yl]-urea]: 224 to 226 °C.
`CCNC(=O)Nc1ccc2ncc(-c3cnn(CCN4CCOCC4)c3)nc2n1` [Compound 60, 1-Ethyl-3-{3-[1-(2-morpholin-4-yl-ethyl)-1H-pyrazol-4-yl]-pyrido[2,3-b]pyrazin-6-yl}-urea] gave a melting point of 223 to 226 °C.
For the compound `COc1cc(-c2ccc3ncc(NC(=S)NC4CCCCC4)nc3n2)ccc1O` [Compound 524, 1-Cyclohexyl-3-[6-(4-hydroxy-3-methoxy-phenyl)-pyrido[2,3-b]pyrazin-3-yl]-thiourea], the melting point was in the range of 253 to 254 °C.
In turn, `CCNC(=S)Nc1cnc2ccc(Nc3ccccc3O)nc2n1` [Compound 197, 1-Ethyl-3-[6-(2-hydroxy-phenylamino)-pyrido[2,3-b]pyrazin-3-yl]-thiourea] displayed a melting point of 211 °C.
`CCNC(=O)Nc1cnc2ccc(N3CCC(O)CC3)nc2n1` [Compound 235, 1-Ethyl-3-[6-(4-hydroxy-piperidin-1-yl)-pyrido[2,3-b]pyrazin-3-yl]-urea] registered a melting point of 249 to 251 °C.
Under `CCNC(=S)Nc1ccc2ncc(Nc3ccc(C(C)=O)cc3)nc2n1` [Compound 467, 1-[3-(4-Acetyl-phenylamino)-pyrido[2,3-b]pyrazin-6-yl]-3-ethyl-thiourea] stands 232 °C.
As for `CCNC(=O)Nc1ccc2ncc(-c3cccnc3OC(C)C)nc2n1` [Compound 51, 1-Ethyl-3-[3-(2-isopropoxy-pyridin-3-yl)-pyrido[2,3-b]pyrazin-6-yl]-urea], the melting point lay in the range of 231 to 232 °C.
On to `CCNC(=S)Nc1cnc2ccc(Nc3ccc(OC)c(Cl)c3)nc2n1` [Compound 202, 1-[6-(3-Chloro-4-methoxy-phenylamino)-pyrido[2,3-b]pyrazin-3-yl]-3-ethyl-thiourea], for which the melting point is 225 °C.
Next, `CCNC(=O)Nc1ccc2ncc(Nc3ccc(N(C)C)cc3)nc2n1` [Compound 169, 1-[3-(4-Dimethylamino-phenylamino)-pyrido[2,3-b]pyrazin-6-yl]-3-ethyl-urea]: 228 °C.
Under `CCNC(=S)Nc1ccc2ncc(Nc3cccc(OC(C)C)c3)nc2n1` [Compound 163, 1-Ethyl-3-[3-(3-isopropoxy-phenylamino)-pyrido[2,3-b]pyrazin-6-yl]-thiourea] stands 238 °C.
`CCNC(=S)Nc1ccc2ncc(Nc3ccc(O)c(C)c3)nc2n1` [Compound 331, 1-Ethyl-3-[3-(4-hydroxy-3-methyl-phenylamino)-pyrido[2,3-b]pyrazin-6-yl]-thiourea]: the melting point turned out to be 258 °C.
On to `CCNC(=O)Nc1ccc2ncc(-c3ccc(C)c([N+](=O)[O-])c3)nc2n1` [Compound 85, 1-Ethyl-3-[3-(4-methyl-3-nitro-phenyl)-pyrido[2,3-b]pyrazin-6-yl]-urea], for which the melting point was in the range of 253.3 to 256.2 °C.
As to `CCNC(=O)Nc1cnc2ccc(Nc3ccc(O)c(Cl)c3)nc2n1` [Compound 31, 1-[6-(3-Chloro-4-hydroxy-phenylamino)-pyrido[2,3-b]pyrazin-3-yl]-3-ethyl-urea], the melting point was 277 to 280 °C.
With `CCCOc1c(C)cc(-c2ccc3ncc(NC(=O)NCC)nc3n2)cc1C` [Compound 598, 1-[6-(3,5-Dimethyl-4-propoxy-phenyl)-pyrido[2,3-b]pyrazin-3-yl]-3-ethyl-urea], the melting point worked out at 232 °C.
In the case of `CCNC(=O)Nc1ccc2ncc(-c3cccc(OCC)c3F)nc2n1` [Compound 146, 1-[3-(3-Ethoxy-2-fluoro-phenyl)-pyrido[2,3-b]pyrazin-6-yl]-3-ethyl-urea], the melting point fell in the range of 202 to 204 °C.
Next, `CCNC(=O)Nc1cnc2ccc(-c3cc(C)cc(Br)c3OC)nc2n1` [Compound 639, 1-[6-(3-Bromo-2-methoxy-5-methyl-phenyl)-pyrido[2,3-b]pyrazin-3-yl]-3-ethyl-urea]: 250 to 252 °C; `COc1cc(Nc2cnc3ccc(NC(=S)NCCCc4ccccc4)nc3n2)cc(OC)c1OC` [Compound 704, 1-(3-Phenyl-propyl)-3-[3-(3,4,5-trimethoxy-phenylamino)-pyrido[2,3-b]pyrazin-6-yl]-thiourea]: 195 to 198 °C.
Consider `O=C(Nc1ccc(F)cc1)Nc1cnc2ccc(-c3cc(Cl)c(O)c(Cl)c3)nc2n1` [Compound 559, 1-[6-(3,5-Dichloro-4-hydroxy-phenyl)-pyrido[2,3-b]pyrazin-3-yl]-3-(4-fluoro-phenyl)-urea], for which the melting point lay within 289 to 291 °C.
The compound `COCCNC(=S)Nc1ccc2ncc(Nc3cc(OC)c(OC)c(OC)c3)nc2n1` [Compound 705, 1-(2-Methoxy-ethyl)-3-[3-(3,4,5-trimethoxy-phenylamino)-pyrido[2,3-b]pyrazin-6-yl]-thiourea] registered a melting point of 243 to 245 °C.
As to `CCNC(=O)Nc1ccc2ncc(-c3ccc4c(c3)N(C)CCO4)nc2n1` [Compound 35, 1-Ethyl-3-[3-(4-methyl-3,4-dihydro-2H-benzo[1,4]oxazin-6-yl)-pyrido[2,3-b]pyrazin-6-yl]-urea], the melting point was in the range of 245 to 247 °C.
Next, `COc1ccc(-c2ccc3ncc(NC(=O)Nc4ccc(N5C(=O)C=CC5=O)cc4)nc3n2)cc1OC` [Compound 579, 1-[6-(3,4-Dimethoxy-phenyl)-pyrido[2,3-b]pyrazin-3-yl]-3-[4-(2,5-dioxo-2,5-dihydro-pyrrol-1-yl)-phenyl]-urea]: 279 to 283 °C; `O=C(Nc1cnc2ccc(-c3cc(Cl)c(O)c(Cl)c3)nc2n1)NC1CCCCCCC1` [Compound 556, 1-Cyclooctyl-3-[6-(3,5-dichloro-4-hydroxy-phenyl)-pyrido[2,3-b]pyrazin-3-yl]-urea]: 261 to 263 °C; `COc1cc(-c2ccc3ncc(NC(=O)NC4CCCCCCC4)nc3n2)ccc1O` [Compound 604, 1-Cyclooctyl-3-[6-(4-hydroxy-3-methoxy-phenyl)-pyrido[2,3-b]pyrazin-3-yl]-urea]: 232 to 234 °C.
`COc1cc(-c2ccc3ncc(NC(=O)Nc4cccc5c4ccn5C)nc3n2)ccc1O` [Compound 621, 1-[6-(4-Hydroxy-3-methoxy-phenyl)-pyrido[2,3-b]pyrazin-3-yl]-3-(1-methyl-1H-indol-4-yl)-urea]: the melting point was 248 to 251 °C.
Compound `CCNC(=O)Nc1ccc2ncc(-c3cccc(C)c3)nc2n1` [Compound 100, 1-Ethyl-3-(3-m-tolyl-pyrido[2,3-b]pyrazin-6-yl)-urea] displayed a melting point of 232 to 234 °C.
Regarding `COc1ccc(-c2ccc3ncc(NC(=O)c4ccccc4)nc3n2)cc1OC` [Compound 660, N-[6-(3,4-Dimethoxy-phenyl)-pyrido[2,3-b]pyrazin-3-yl]-benzamide], the melting point lay in the range of 168 to 170 °C.
`COc1ccc(-c2ccc3ncc(NC(=O)NCCc4ccccc4)nc3n2)cc1OC` [Compound 577, 1-[6-(3,4-Dimethoxy-phenyl)-pyrido[2,3-b]pyrazin-3-yl]-3-phenethyl-urea] came in with a melting point of 254 to 257 °C.
The compound `Cc1cc(-c2ccc3ncc(NC(=O)NC4CCCCC4)nc3n2)cc(C)c1O` [Compound 584] returned a melting point of 247 to 250 °C.
Turning to `CCNC(=S)Nc1ccc2ncc(Nc3ccc(F)c([N+](=O)[O-])c3)nc2n1` [Compound 489, 1-Ethyl-3-[3-(4-fluoro-3-nitro-phenylamino)-pyrido[2,3-b]pyrazin-6-yl]-thiourea], the melting point came to 260 °C.
Under `COc1cc(-c2ccc3ncc(NC(=O)NC4CCN(C(=O)OCc5ccccc5)CC4)nc3n2)ccc1O` [Compound 606, 4-{3-[6-(4-Hydroxy-3-methoxy-phenyl)-pyrido[2,3-b]pyrazin-3-yl]-ureido}-piperidine-1-carboxylic acid benzyl ester] stands 210 to 212 °C; under `CCNC(=O)Nc1ccc2ncc(-c3cccc(NS(C)(=O)=O)c3)nc2n1` [Compound 120, N-{3-[6-(3-Ethyl-ureido)-pyrido[2,3-b]pyrazin-3-yl]-phenyl}-methanesulfonamide], 224 to 228 °C.
`COc1ccc(-c2ccc3ncc(NC(=O)NC4CCN(C(=O)C(F)(F)F)CC4)nc3n2)cc1OC` [Compound 581, 1-[6-(3,4-Dimethoxy-phenyl)-pyrido[2,3-b]pyrazin-3-yl]-3-[1-(2,2,2-trifluoro-acetyl)-piperidin-4-yl]-urea] registered a melting point of 239 to 242 °C.
With `CCNC(=O)Nc1ccc2ncc(Nc3cccc(CO)c3)nc2n1` [Compound 154, 1-Ethyl-3-[3-(3-hydroxymethyl-phenylamino)-pyrido[2,3-b]pyrazin-6-yl]-urea], the melting point was 238 °C.
`COCCCNC(=S)Nc1ccc2ncc(Nc3cc(OC)c(OC)c(OC)c3)nc2n1` [Compound 710, 1-(3-Methoxy-propyl)-3-[3-(3,4,5-trimethoxy-phenylamino)-pyrido[2,3-b]pyrazin-6-yl]-thiourea]: the melting point turned out to be 246 °C.

Broadly, the melting point is the temperature, or range, at which the solid turns liquid.

The values above are taken from patent publication US8536332B2, “Modulating signal transduction pathways with substituted pyridol [2,3-b] pyrazines” (Aeterna Zentaris GmbH, priority 2007, dated 2013).
